Results taken from article PMC12645191, “Dicarboxylate and dicarboxylic acid appended supramolecular self-associating amphiphiles as antimicrobial agents against high priority bacterial pathogens” (Organic & Biomolecular Chemistry, 2025).
Several values for one entry are separate records, joined by “and”; a condition that tells them apart may be missing. Equal entries are not always repeated. Marks after values point to notes of the source that are not given here.

Tests used:
[1] = quantitative (Q) 1H NMR spectroscopy, proportion of SSA becoming NMR silent (higher-order aggregates); format: physicochemical; details: for (Q) 1H NMR spectroscopy, proportion NMR silent, acid or anion / (Q) 1H NMR spectroscopy, proportion NMR silent, cation: 5.6 mM, D2O 5.0% EtOH, 298 K
Method: To confirm the presence of higher order self-associative structures quantitative (Q) ^1H NMR spectroscopy studies were undertaken at 5.6 mM in D2O 5% EtOH. Here the ^1H NMR resonances attributed to the EtOH are used as an internal standard.
Table S1 – Overview of results of the quantitative (Q) 1H NMR studies for 1, 3, 5, 7 and 9
5.0 % EtOH . Values given in % represent the observed proportion of the SSA that has become
Table S2 – Overview of results of the quantitative (Q) 1H NMR studies for 2, 4, 6, 8 and 10
5.0 % EtOH. Values given in % represent the observed proportion of anion and cation that has

[2] = tensiometry: critical aggregate concentration (CAC) and surface tension; format: physicochemical; details: for Surface tension at CAC: H2O/5.0 % EtOH
Method: As the (Q) ^1H NMR spectroscopy experiments conducted at 5.6 mM in a D2O 5.0% EtOH solution confirmed the presence of higher-order self-associated structures with solid-like properties, concentration dependent surface tension measurements, obtained through tensiometry, were used to calculate critical aggregate concentration (CAC). Here the CAC is defined as the point at which an increase in SSA concentration no longer decreases surface tension but instead results in the formation of higher-order self-associated structures.

[3] = dynamic light scattering (DLS) of SSA aggregates; format: physicochemical; details: 5.6 mM, H2O 5.0% EtOH, 298 K
Method: Dynamic light scattering (DLS) and zeta potential measurements in H2O 5.0% EtOH were used to determine the hydrodynamic diameter (dH) and stability of the higher-order SSA aggregates detected by (Q) ^1H NMR spectroscopy at 5.6 mM, Table 1. […] However, we are unable to confidently report a dH for 1 due to the instability of this system, which is supported by a zeta potential value of −26 mV, obtained for this SSA under the same experimental conditions. […] Due to the instability of these systems in the absence of solvent, attempts to further characterise these systems through SEM or AFM are not possible.[48]

P. aeruginosa PAO1 = experiment: inhibition of bacterial growth, OD600 after 20 h; format: cell-based, Pseudomonas aeruginosa; details: SSA 5.0 mM, 2.5% ethanol, negative = enhanced growth
Method: (§1) With the self-associative properties of 1–10 established, the antimicrobial activity of these SSAs were determined against a panel of clinically relevant, high-priority pathogens including: P. aeruginosa PAO1; Klebsiella pneumonia (K. pneumoniae) M6; E. coli NCTC 12923; Acinetobacter baumannii (A. baumannii) ATCC 17978; S. aureus ATCC 9144; Enterococcus faecalis (E. faecalis) NCTC 775; and Enterococcus faecium (E. faecium) NCTC 12204. […] However, it should be noted that the SSA stock solution was prepared in a H2O 5% EtOH solution, to ensure that the SSA aggregates formed were in line with those characterised within the scope of the SSA self-association studies.
(§2) Section 3: Biological methods
(§3) These methods were taken directly from UK Health and Security Office (UKHSA) standard […]
(§4) Preparation of Luria Broth media (LB): Yeast extract (5.0 g), tryptone (10.0 g) and sodium chloride (10.0 g) were dissolved in dH₂O (1.0 L) then divided into bottles and autoclaved.
(§5) Preparation of Luria Broth (LB) agar plates: Agar (6.0 g) was added to LB (400 mL) and autoclaved. Once cool, the LB agar was poured into sterile petri dishes under sterile conditions and allowed to set. LB plates were stored at 4 °C until use.
(§6) Preparation of bacterial plates: Sterile LB agar plates were streaked using streaked using the desired bacteria i) Pseudomonas aeruginosa (P.aeruginosa) PAO1, ii) Klebsiella pneumoniae (K. pneumoniae) M6 iii) E. coli NCTC 12923 and iv) Acinetobacter baumannii (A. baumannii) ATCC 17978 and Gram-positive i) Staphylococcus aureus (S. aureus) ATCC 9144 ii) Enterococcus faecalis (E. faecalis) NCTC 775 and iii) Enterococcus faecium (E. faecium ) NCTC 12204, then incubated at 37 °C overnight.
(§7) Preparation of Inoculum: An initial culture was made up by inoculating LB media (5 mL) with a single colony of bacteria under sterile conditions and incubated at 37 °C with shaking overnight. The following day, overnight bacterial cultures were subcultured into fresh LB medium to a starting OD600 of 0.01.
(§8) Preparation of 96 well microplate for MIC50: The 1:100 cell suspension (150 µL) was dispensed into individual wells under sterile conditions. SSAs (30 µL) were added to the wells to equal a total volume of 180 µL in the wells. Six repeats of each concentration for each SSA were created each plate. The plates were sealed using parafilm, then incubated at 37 °C in a microplate reader for 20 hours. OD600 endpoint data was used to generate growth curves. […]

K. pneumoniae M6 = experiment: inhibition of bacterial growth, OD600 after 20 h; format: cell-based, Klebsiella pneumoniae; details: SSA 5.0 mM, 2.5% ethanol, negative = enhanced growth
Method: as §1, §2, §3, §4, §5, §6, §7, §8

E. coli NCTC 12923 = experiment: inhibition of bacterial growth, OD600 after 20 h; format: cell-based, Escherichia coli; details: SSA 5.0 mM, 2.5% ethanol, negative = enhanced growth
Method: as §1, §2, §3, §4, §5, §6, §7, §8

A. baumannii ATCC 17978 = experiment: inhibition of bacterial growth, OD600 after 20 h; format: cell-based, Acinetobacter baumannii; details: SSA 5.0 mM, 2.5% ethanol, negative = enhanced growth
Method: as §1, §2, §3, §4, §5, §6, §7, §8

S. aureus ATCC 9144 = experiment: inhibition of bacterial growth, OD600 after 20 h; format: cell-based, Staphylococcus aureus; details: SSA 5.0 mM, 2.5% ethanol, negative = enhanced growth
Method: as §1, §2, §3, §4, §5, §6, §7, §8

E. faecalis NCTC 775 = experiment: inhibition of bacterial growth, OD600 after 20 h; format: cell-based, Enterococcus faecalis; details: SSA 5.0 mM, 2.5% ethanol, negative = enhanced growth
Method: as §1, §2, §3, §4, §5, §6, §7, §8

E. faecium NCTC 12204 = experiment: inhibition of bacterial growth, OD600 after 20 h; format: cell-based, Enterococcus faecium; details: SSA 5.0 mM, 2.5% ethanol, negative = enhanced growth
Method: as §1, §2, §3, §4, §5, §6, §7, §8

COc1ccc(NC(=O)N[C@@H](CCC(=O)O)C(=O)O)cc1 [SSA 6]
(Q) 1H NMR spectroscopy, proportion NMR silent, acid or anion ([1]; listed as 6): 42%
(Q) 1H NMR spectroscopy, proportion NMR silent, cation ([1]; listed as 6): 41.8% and 42%
(Q) 1H NMR, proportion NMR silent, cation ([1]; ~112 mM, DMSO-d6 1.0% DCM): 0%
ST at the limit of solubility or 100 mM, whichever concentration is lower ([2]; H2O 5.0% EtOH, 298 K): 38 ^d mN m^−1
CAC (footnote in place of a value) ([2]; H2O 5.0% EtOH, 298 K, listed as 6): ^c (CAC is >100 mM)
Surface tension at CAC ([2]; listed as 6): 38.24 mN/m
DLS Peak 2 maxima ([3]; listed as 6): 5868 nm
Polydispersity index (%) ([3]; listed as 6): 21.5 (± 1.3) %
dH (DLS intensity distribution peak 1 maxima) ([3]; listed as 6): 164 nm
Percentage inhibition of bacterial growth, PAO1 (P. aeruginosa) (P. aeruginosa PAO1; listed as 6): 29.42% and 29%
Percentage inhibition of bacterial growth, M6 (K. pneumoniae) (K. pneumoniae M6; listed as 6): 22.92% and 23%
Percentage inhibition of bacterial growth, NCTC 12923 (E. coli) (E. coli NCTC 12923; listed as 6): 32.77% and 33%
Percentage inhibition of bacterial growth, ATCC 17978 (A. baumannii) (A. baumannii ATCC 17978; listed as 6): -28.50% and −29%
Percentage inhibition of bacterial growth, ATCC 9144 (S. aureus) (S. aureus ATCC 9144; listed as 6): 55.64% and 56%
Percentage inhibition of bacterial growth, NCTC 775 (E. faecalis) (E. faecalis NCTC 775; listed as 6): 7.71% and 8%
Percentage inhibition of bacterial growth, NCTC 12204 (E. faecium) (E. faecium NCTC 12204; listed as 6): 7.44% and 7%

COc1ccc(NC(=O)N[C@@H](CC(=O)O)C(=O)O)cc1 [SSA 7]
(Q) 1H NMR, proportion NMR silent, SSA acid or anion ([1]; ~112 mM, DMSO-d6 1.0% DCM): 0%
CAC (footnote in place of a value) ([2]; H2O 5.0% EtOH, 298 K): ^b (CAC above the limit of solubility)
ST at CAC ([2]; H2O 5.0% EtOH, 298 K, listed as 7): 55 mN m^−1
Surface tension at CAC ([2]; listed as 7): 54.72 mN/m
DLS Peak 2 maxima ([3]; listed as 7): 5177 nm
Polydispersity index (%) ([3]; listed as 7): 19.6 (± 1.7) %
dH (DLS intensity distribution peak 1 maxima) ([3]; listed as 7): 214 nm
Percentage inhibition of bacterial growth, PAO1 (P. aeruginosa) (P. aeruginosa PAO1; listed as 7): -24.25% and −24%
Percentage inhibition of bacterial growth, M6 (K. pneumoniae) (K. pneumoniae M6; listed as 7): 32.42% and 32%
Percentage inhibition of bacterial growth, NCTC 12923 (E. coli) (E. coli NCTC 12923; listed as 7): 64.22% and 64%
Percentage inhibition of bacterial growth, ATCC 17978 (A. baumannii) (A. baumannii ATCC 17978; listed as 7): 24.84% and 25%
Percentage inhibition of bacterial growth, ATCC 9144 (S. aureus) (S. aureus ATCC 9144; listed as 7): 5.65% and 6%
inhibition at 5000 µM (E. faecalis NCTC 775; Enterococcus faecalis, NCTC775, 20 h, read-out: Percentage inhibition of bacterial growth, NCTC 775 (E. faecalis)): 47.2%
Percentage inhibition of bacterial growth, NCTC 775 (E. faecalis) (E. faecalis NCTC 775; listed as 7): 47%
Percentage inhibition of bacterial growth, NCTC 12204 (E. faecium) (E. faecium NCTC 12204; listed as 7): 50.11% and 50%

COc1ccc(NC(=O)N[C@@H](CC(=O)O)C(=O)O)cc1 [SSA 8]
(Q) 1H NMR spectroscopy, proportion NMR silent, acid or anion [1]: 47%
(Q) 1H NMR spectroscopy, proportion NMR silent, cation [1]: 41.8% and 42%
(Q) 1H NMR, proportion NMR silent, cation ([1]; ~112 mM, DMSO-d6 1.0% DCM): 0%
ST at CAC ([2]; H2O 5.0% EtOH, 298 K, listed as 8): 52 mN m^−1
Surface tension at CAC ([2]; listed as 8): 51.98 mN/m
DLS Peak 2 maxima ([3]; listed as 8): 3417 nm
Polydispersity index (%) ([3]; listed as 8): 25.6 (± 1.0) %
dH (DLS intensity distribution peak 1 maxima) ([3]; listed as 8): 313 nm
Percentage inhibition of bacterial growth, PAO1 (P. aeruginosa) (P. aeruginosa PAO1; listed as 8): 37.24% and 37%
Percentage inhibition of bacterial growth, M6 (K. pneumoniae) (K. pneumoniae M6; listed as 8): 9.69% and 10%
Percentage inhibition of bacterial growth, NCTC 12923 (E. coli) (E. coli NCTC 12923; listed as 8): 39.33% and 39%
Percentage inhibition of bacterial growth, ATCC 17978 (A. baumannii) (A. baumannii ATCC 17978; listed as 8): -20.26% and −20%
Percentage inhibition of bacterial growth, ATCC 9144 (S. aureus) (S. aureus ATCC 9144; listed as 8): 96.79% and 97%
Percentage inhibition of bacterial growth, NCTC 775 (E. faecalis) (E. faecalis NCTC 775; listed as 8): 38.33% and 38%
Percentage inhibition of bacterial growth, NCTC 12204 (E. faecium) (E. faecium NCTC 12204; listed as 8): -1.33% and −1%
